Like-named read-outs stand apart in the source and are kept apart here.
How the values were obtained:
[1] = molecular target: T1, WT RT (HIV-1 RT) (Human immunodeficiency virus type 1 group M subtype B, UniProt P03366); test: biochemical
T1 construct: mutations that occur in the reverse transcriptase segment of the pol gene
From the text: (§1) Based upon testing of these compounds, as described below, it is known that they inhibit the RNA-dependent DNA polymerase activity of HIV-1 RT. […] Utilising the Reverse Transcriptase (RT) Assay described below, compounds can be tested for their ability to inhibit the RNA-dependent DNA polymerase activity of HIV-1 RT. Certain specific compounds described in the Examples which appear below, were so tested. The results of this testing appear in Table 4 as IC50 (nM) and Table 5 as EC50 (nM).
(§2) Reverse TranscriptASE (RT) Assays
(§3) The assays are as described in WO 01/96338A1, the contents of which are hereby incorporated herein. The results are listed in Tables 8 as IC50(nM) and EC50(nM).

[2] = molecular target: T2, Y188L mutant RT (HIV-1 RT) (Human immunodeficiency virus type 1 group M subtype B, UniProt P03366, Y787L); test: biochemical
T2 construct: mutations that occur in the reverse transcriptase segment of the pol gene
From the text: as §1, §2, §3

[3] = molecular target: T3, K103N/Y181C double mutant RT (HIV-1 RT) (Human immunodeficiency virus type 1 group M subtype B, UniProt P03366, K702N/Y780C); test: biochemical
T3 construct: mutations that occur in the reverse transcriptase segment of the pol gene
From the text: as §1, §2, §3

[4] = molecular target: T4, V106A mutant RT (HIV-1 RT) (Human immunodeficiency virus type 1 group M subtype B, UniProt P03366, V705A); test: biochemical
T4 construct: mutations that occur in the reverse transcriptase segment of the pol gene
From the text: as §1, §2, §3

[5] = tested on: K103N/Y181C (HIV-1 double mutant strain); test: EC50 assay, K103N/Y181C strain; format: cell-based; conditions: Human immunodeficiency virus 1, read-out: EC50 K103N/Y181C (nM), K103N/Y181C double mutant
From the text: as §2, §3

[6] = tested on: WT RT (HIV-1 wild type strain); test: EC50 assay, WT RT strain; format: cell-based; conditions: Human immunodeficiency virus 1, read-out: EC50 WT RT (nM)
From the text: as §2, §3

[7] = read-out: IC50 K103N/Y181C, K103N/Y181C double mutant RT
[8] = read-out: IC50 WT RT, wild type RT
[9] = wild type RT, read-out: IC50 WT RT
[10] = K103N/Y181C double mutant RT, read-out: IC50 K103N/Y181C

Structure (SMILES)	IC50 [1]	IC50 ([2]; IC50 Y188L (nM))	IC50 [3]	IC50 ([4]; IC50 V106A (nM))	further results
CCN1c2ncc(CCOc3ccc(CCC(=O)O)c4ccccc34)cc2C(=O)Nc2c(C)ccnc21 [Entry 1024]	< 0.1 µM	> 1000 nM	> 1 µM	100 to 1000 nM	–
CCN1c2ncc(CCOc3ccc(CC(=O)O)c4ccccc34)cc2C(=O)Nc2c(C)cc(F)nc21 [Entry 1014]	< 0.1 µM	> 1000 nM	0.1 to 1 µM	100 to 1000 nM	–
CCN1c2ncc(CCOc3cccc4c(S(N)(=O)=O)cccc34)cc2C(=O)N(C)c2cccnc21 [Entry 2004]	< 0.1 µM	100 to 1000 nM	< 0.1 µM	100 to 1000 nM	–
CCN1c2ncc(CCOc3ccc(/C=C(\C)C(=O)O)c4ccccc34)cc2C(=O)Nc2c(C)ccnc21 [Entry 1039]	< 0.1 µM	> 1000 nM	0.1 to 1 µM	100 to 1000 nM	–
CCN1c2ncc(CCOc3ccc(C(=O)O)c4ccccc34)cc2C(=O)N(C)c2cccnc21 [Entry 1001]	–	–	–	–	EC50 [5]: < 100 nM; EC50 [6]: < 100 nM
CCN1c2ncc(CCOc3ccc(C(=O)O)c4c3CCN(S(C)(=O)=O)C4)cc2C(=O)N(C)c2cccnc21 [Entry 7005]	< 0.1 µM	100 to 1000 nM	< 0.1 µM	> 1000 nM	EC50 [6]: < 100 nM
CCN1c2ncc(CCOc3ccc(CC(=O)O)c4ccccc34)cc2C(=O)N(C)c2ccc(C)nc21 [Entry 1011]	< 0.1 µM	> 1000 nM	0.1 to 1 µM	> 1000 nM	–
CCN1c2ncc(CCOc3ccc(C(=O)O)c4ccccc34)cc2C(=O)N(C)c2cccnc21 [Entry 2010]	< 0.1 µM	> 1000 nM	0.1 to 1 µM	> 1000 nM	–
CCN1c2ncc(CCOc3ccc(/C=C(\C)C(=O)O)c4ccccc34)cc2C(=O)Nc2c(C)cc(F)nc21 [Entry 1041]	< 0.1 µM	> 1000 nM	0.1 to 1 µM	100 to 1000 nM	–
CCN1c2ncc(CCOc3ccc(CC(=O)O)c4c3CCCC4)cc2C(=O)N(C)c2cccnc21 [Entry 5006]	< 0.1 µM	> 1000 nM	0.1 to 1 µM	> 1000 nM	–
CCN1c2ncc(CCOc3ccc(C(=O)O)c4ccccc34)cc2C(=O)N(C)c2ccc(C)nc21 [Entry 1003]	< 0.1 µM	> 1000 nM	0.1 to 1 µM	> 1000 nM	–
CCN1c2ncc(CCOc3ccc(/C=C/C(=O)O)c4ccccc34)cc2C(=O)N(C)c2cccnc21 [Entry 2013]	–	> 1000 nM	–	–	IC50 [3, 7]: 0.1 to 1 µM; IC50 ([4]; read-out: IC50 V106A): > 1000 nM
CCN1c2ncc(CCOc3ccc(CC(C)C(=O)O)c4ccccc34)cc2C(=O)Nc2c(C)ccnc21 (stereo not drawn) [Entry 1046]	< 0.1 µM	> 1000 nM	> 1 µM	> 1000 nM	–
CCN1c2ncc(CCOc3ccc(CC(=O)O)c4ccccc34)cc2C(=O)Nc2c(C)ccnc21 [Entry 1013]	< 0.1 µM	> 1000 nM	> 1 µM	> 1000 nM	–
CCN1c2ncc(CCOc3ccc(CC(C)C(=O)O)c4ccccc34)cc2C(=O)Nc2c(C)cc(Cl)nc21 (stereo not drawn) [Entry 1047]	< 0.1 µM	> 1000 nM	0.1 to 1 µM	100 to 1000 nM	–
CCN1c2ncc(CCOc3ccc(/C=C/C(=O)O)c4ccccc34)cc2C(=O)Nc2c(C)cc(F)nc21 [Entry 2015]	–	–	–	100 to 1000 nM	IC50 [1, 8]: < 0.1 µM; IC50 ([2]; read-out: IC50 Y188L): > 1000 nM; IC50 [3, 7]: 0.1 to 1 µM
CCN1c2ncc(CCOc3ccc4cc(C(=O)O)ccc4c3)cc2C(=O)N(C)c2cccnc21 [Entry 3001]	< 0.1 µM	> 1000 nM	0.1 to 1 µM	100 to 1000 nM	–
CCN1c2ncc(CCOc3ccc(NC(=O)CC(C)(C)C(=O)O)c4ccccc34)cc2C(=O)N(C)c2cccnc21 [Entry 2007]	–	–	–	–	IC50 [1, 9]: < 0.1 µM; IC50 ([2]; read-out: IC50 Y188L): > 1000 nM; IC50 [3, 10]: 0.1 to 1 µM; IC50 ([4]; read-out: IC50 V106A): > 1000 nM

Structure (SMILES)	IC50 [1]	IC50 ([2]; IC50 Y188L (nM))	IC50 [3]	IC50 ([4]; IC50 V106A (nM))	further results
CCN1c2ncc(CCOc3ccc(CCC(=O)O)c4ccccc34)cc2C(=O)N(C)c2ccc(C)nc21 [Entry 1026]	< 0.1 µM	> 1000 nM	0.1 to 1 µM	> 1000 nM	–
CCN1c2ncc(CCOc3ccc4cc(CC(=O)O)ccc4c3)cc2C(=O)N(C)c2cccnc21 [Entry 3004]	< 0.1 µM	> 1000 nM	> 1 µM	100 to 1000 nM	–
CCN1c2ncc(CCOc3ccc(S(=O)(=O)NC(C)=O)c4ccccc34)cc2C(=O)N(C)c2cccnc21 [Entry 2005]	–	–	–	–	IC50 [1, 9]: < 0.1 µM; IC50 ([2]; read-out: IC50 Y188L): > 1000 nM; IC50 [3, 10]: 0.1 to 1 µM; IC50 ([4]; read-out: IC50 V106A): > 1000 nM
CCN1c2ncc(CCOc3ccc(C(=O)O)c4ccccc34)cc2C(=O)Nc2c(C)ccnc21 [Entry 1005]	< 0.1 µM	> 1000 nM	0.1 to 1 µM	100 to 1000 nM	–
CCN1c2ncc(CCOc3ccc(CC(=O)NN)c4ccccc34)cc2C(=O)N(C)c2ccc(NN)nc21 [Entry 1017]	< 0.1 µM	–	–	–	–
CCN1c2ncc(CCOc3ccc(CC(C)C(=O)O)c4ccccc34)cc2C(=O)N(C)c2ccc(F)nc21 (stereo not drawn) [Entry 1043]	< 0.1 µM	> 1000 nM	0.1 to 1 µM	> 1000 nM	–
CCN1c2ncc(CCOc3ccc(CC(N)=O)c4ccccc34)cc2C(=O)N(C)c2cccnc21 [Entry 1018]	< 0.1 µM	> 1000 nM	< 0.1 µM	100 to 1000 nM	–
CCN1c2ncc(CCOc3cccc4c3CCCN4CC(=O)O)cc2C(=O)N(C)c2cccnc21 [Entry 6001]	< 0.1 µM	> 1000 nM	> 1 µM	> 1000 nM	EC50 [6]: 100 to 1000 nM
CCN1c2ncc(CCOc3ccc(CCC(=O)O)c4ccccc34)cc2C(=O)Nc2c(C)cc(F)nc21 [Entry 1027]	< 0.1 µM	> 1000 nM	0.1 to 1 µM	100 to 1000 nM	–
CCN1c2ncc(CCOc3ccc(CC(C)C(=O)O)c4ccccc34)cc2C(=O)N(C)c2ccc(C)nc21 (stereo not drawn) [Entry 1045]	< 0.1 µM	> 1000 nM	0.1 to 1 µM	> 1000 nM	–
CCN1c2ncc(CCOc3ccc(NS(C)(=O)=O)c4ccccc34)cc2C(=O)N(C)c2cccnc21 [Entry 2003]	< 0.1 µM	> 1000 nM	0.1 to 1 µM	> 1000 nM	EC50 [5]: < 100 nM
CCN1c2ncc(CCOc3ccc(C(=O)O)c4c3CCN(C(C)=O)C4)cc2C(=O)N(C)c2cccnc21 [Entry 7004]	< 0.1 µM	> 1000 nM	0.1 to 1 µM	> 1000 nM	EC50 [6]: 100 to 1000 nM
CCN1c2ncc(CCOc3ccc(C(=O)O)c4ccccc34)cc2C(=O)Nc2c(C)cc(F)nc21 [Entry 1004]	< 0.1 µM	> 1000 nM	0.1 to 1 µM	100 to 1000 nM	–
CCN1c2ncc(CCOc3cccc4c3CCCN4C(=O)CC(=O)O)cc2C(=O)N(C)c2cccnc21 [Entry 6002]	< 0.1 µM	–	–	–	–
CCN1c2ncc(CCOc3ccc(CC(C)C(=O)O)c4ccccc34)cc2C(=O)N(C)c2cccnc21 (stereo not drawn) [Entry 2021]	–	–	–	–	IC50 [1, 9]: 0.1 to 1 µM
CCN1c2ncc(CCOc3ccc(CC(=O)NS(C)(=O)=O)c4ccccc34)cc2C(=O)N(C)c2cccnc21 [Entry 2012]	–	–	–	–	IC50 [1, 9]: < 0.1 µM; IC50 ([2]; read-out: IC50 Y188L): > 1000 nM; IC50 [3, 10]: > 1 µM; IC50 ([4]; read-out: IC50 V106A): > 1000 nM
CCN1c2ncc(CCOc3ccc(/C=C/C(=O)O)c4ccccc34)cc2C(=O)N(C)c2ccc(C)nc21 [Entry 2017]	–	> 1000 nM	–	> 1000 nM	IC50 [1, 8]: < 0.1 µM; IC50 [3, 7]: 0.1 to 1 µM

Source: US6673791B2, “Non-nucleoside reverse transcriptase inhibitors” (Boehringer Ingelheim (Canada) Ltd., priority 2001, dated 2004)
